In US8980951B2, “Sesquiterpenes for antifungal applications” (Kansas State University Research Foundation, priority 2011, dated 2015):
Converted amounts (≈) assume the structure as drawn.

Legend:
[1] = test system: T. equinum; experiment: CLSI microdilution antifungal susceptibility assay; format: cell-based; settings: for EC50: 50% fungal inhibitory concentration; for MIC: lowest concentration with no fungal growth, CLSI
Procedure: (§1) Synthetic pure albicanol and drimenol were dissolved in DMSO (10 mg/ml as stock solution) and used to determine their antifungal activities (minimum inhibitory concentration, MIC) against various fungi according to the microdilution assay of Clinical and Laboratory Standards Institute (CLSI (2008). Reference method for broth dilution antifungal susceptibility testing of yeasts and filamentous fungi: Approved Standard-Third Edition. Clinical and Laboratory Standards Institute 940 West Valley Road, Wayne, Pa. CLSI document M27-A3 & M38-A28. An initial assay had confirmed the antifungal activity of albicanol and drimenol; therefore, the susceptibility assay was extended to other pathogenic fungi including fluconazole resistant C. albicans, various species of candida, Cryptococcus, Aspergillus and a dermatophyte fungus.
(§2) Yeast cells or conidia (for filamentous fungi) were suspended in RPMI 1640 (with 50 mM glucose) medium to a final concentration of 10^4 cfu/ml and distributed in a 96-well microplate to a total volume of 100 μl/well. Albicanol and drimenol were added into the wells and serial dilutions (broad or narrow range) with replicates were made, and wells with or without DMSO served as controls. Plates were incubated without shaking at 37° C. for 24-48 h for yeasts and 30° C. for 4 days for filamentous fungi (Aspergillus and Trichophyton sp). The MIC was defined as the lowest compound concentration at which no growth occurred, as determined visually and by OD600 measurement (or microscopically, inverted). As a positive control, amphotericin B (AMB) (1 μg/ml) was also included in parallel. Cytotoxicity of albicanol and drimenol was determined using human intestinal epithelial cell lines (Int-407) by utilizing cell viability assay kit of Promega.

[2] = test system: Cryp. neoformans; experiment: CLSI microdilution antifungal susceptibility assay; format: cell-based; settings: for EC50 / MIC: Cryptococcus neoformans; for EC50: 50% fungal inhibitory concentration; for MIC: lowest concentration with no fungal growth, CLSI
Procedure: as §1, §2

[3] = test system: C. albicans SC5314; experiment: CLSI microdilution antifungal susceptibility assay; format: cell-based; settings: for EC50 / MIC: Candida albicans; for EC50: 50% fungal inhibitory concentration; for MIC: lowest concentration with no fungal growth, CLSI
Procedure: as §1, §2

[4] = test system: C. albicans Day 185; experiment: CLSI microdilution antifungal susceptibility assay; format: cell-based; settings: for EC50 / MIC: Candida albicans; for EC50: DAY185, 50% fungal inhibitory concentration; for MIC: DAY185, lowest concentration with no fungal growth, CLSI
Procedure: as §1, §2

[5] = test system: A. nidulans, C. albicans, C. albicans 95-158 Flu-R, Cryp. neomormans, Candida krusei, and C. glabrata; experiment: Fungicidal test, viability of treated fungal cells spotted on YPD agar; format: cell-based; settings: for effect of amines or YPD medium on bioactivity: presence of amines or YPD medium
[6] = test system: various fungi; experiment: Fungal EC50 and selective index summary; format: cell-based; settings: against various fungi; read-out: effective fungal concentration-50 (EC50)
Procedure: as §2

[7] = Cytotoxicity, Promega's cell viability assay kit; format: cell-based; settings: human, Int-407 intestinal epithelial cells; summary in description; read-out: cytotoxic inhibitory concentration (IC50) against Int. 407
Procedure: as §2

[8] = test system: Caenorhabditis elegans (worm); experiment: Toxicity to worms in the Candidiasis model; format: in vivo; settings: at concentrations that inhibit fungal growth
Procedure: (§3) In order to determine antifungal efficacy and toxicity of albicanol and drimenol simultaneously, Caenorhabditis elegans (worm), a non-mammalian host model of Candidiasis was used. Worms fed with C. albicans yeast cells were incubated in RPMI medium in the presence or absence of drimenol. After 4-5 days worms were scored for survival under an inverted microscope and images were recorded. […] Note dead worms (straight shapes) and clusters of fungal growth in wells without drimenol (−Dri).

[9] = test system: fluconazole resistant C. alibcans, Cryptococcus sp. and Aspergillus sp.; experiment: MIC summary for fungi; format: cell-based; settings: Candida albicans, read-out: minimum inhibitory concentration (MIC)
Procedure: as §1
(§4) Yeast cells or conidia (for filamentous fungi) were suspended in RPMI 1640 (with 50 mM glucose) medium to a final concentration of 10^4 cfu/ml and distributed in a 96-well microplate to a total volume of 100 μl/well. […] The MIC was defined as the lowest compound concentration at which no growth occurred, as determined visually and by OD600 measurement (or microscopically, inverted). […] Cytotoxicity of albicanol and drimenol was determined using human intestinal epithelial cell lines (Int-407) by utilizing cell viability assay kit of Promega.

[10] = test system: dermatophyte fungi; experiment: MIC summary for dermatophyte fungi; format: cell-based
Procedure: as §1, §4

[11] = test system: barcoded mutants of Saccharomyces cerevisiae; experiment: Genome-wide fitness (haploinsufficiency) profiling, yeast TAG4 microarray; format: cell-based; settings: at 20% growth inhibitory concentration; 20 generations
[12] = test system: C. albicans; experiment: Caenorhabditis elegans host model of Candidiasis; format: in vivo; settings: 50 μg/ml; RPMI medium; scored after 4-5 days
Procedure: as §3

| Structure (SMILES) | Selective Index (Int-407 IC50/fungal EC50) [1] | EC50 [1] [µg/mL] | MIC [1] [µg/mL] | Selective Index (Int-407 IC50/fungal EC50) [2] | EC50 [2] [µg/mL] | MIC [2] [µg/mL] | Selective Index (Int-407 IC50/fungal EC50) [3] | EC50 [3] [µg/mL] | MIC [3] [µg/mL] | Selective Index (Int-407 IC50/fungal EC50) [4] | EC50 [4] [µg/mL] | MIC [4] [µg/mL] | effect of amines or YPD medium on bioactivity [5] | EC50 [6] [µg/mL] | CC50 [7] [µg/mL] | cytotoxicity to worms [8] | MIC [9] [µg/mL] | MIC [10] [µg/mL] | also measured |
| --- | --- | --- | --- | --- | --- | --- | --- | --- | --- | --- | --- | --- | --- | --- | --- | --- | --- | --- | --- |
| C=C1CC[C@H]2C(C)(C)CCC[C@]2(C)[C@H]1CO [Albicanol, (+)-albicanol] | 6.25 (6.25) | 8 (≈ 36 µM) | 15 (≈ 67.5 µM) | 2.27 | 22 (≈ 98.9 µM) | 40 (≈ 180 µM) | 2 | 25 (≈ 112 µM) | 50 (≈ 225 µM) | 2.27 | 22 (≈ 98.9 µM) | 40 (≈ 180 µM) | not affected | 5 to 30 (≈ 22.5 to 135 µM) | ~50 (≈ 225 µM) | less or no cytotoxicity to worms | 25 to 50 (≈ 112 to 225 µM) | 5 to 15 (≈ 22.5 to 67.5 µM) | – |
| CC1=CC[C@H]2C(C)(C)CCC[C@]2(C)[C@H]1CO [drimenol, (−)-drimenol] | 6.25 (6.25) | 8 (≈ 36 µM) | 5 (≈ 22.5 µM) | 3.12 | 16 (≈ 72 µM) | 30 (≈ 135 µM) | 2.27 | 22 (≈ 98.9 µM) | 40 (≈ 180 µM) | 4.16 | 12 (≈ 54 µM) | 25 (≈ 112 µM) | not affected | 5 to 30 (≈ 22.5 to 135 µM) | ~50 (≈ 225 µM) | less or no cytotoxicity to worms | 25 to 50 (≈ 112 to 225 µM) | 5 to 15 (≈ 22.5 to 67.5 µM) | MFC ([5]; all the fungi tested, 100 μg/ml for 48 h, read-out: minimum fungicidal concentration, MFC): 100 µg/mL (≈ 450 µM); strains/genes depleted at the log ratio of >1.5 [11]: 34; protection of worms from C. albicans mediated death [12]: prevented C. albicans growth and protected worms from C. albicans mediated death |
